Target: T1, Stl1 (Saccharomyces cerevisiae, UniProt P39932)
T1 sequence (P39932 1-569): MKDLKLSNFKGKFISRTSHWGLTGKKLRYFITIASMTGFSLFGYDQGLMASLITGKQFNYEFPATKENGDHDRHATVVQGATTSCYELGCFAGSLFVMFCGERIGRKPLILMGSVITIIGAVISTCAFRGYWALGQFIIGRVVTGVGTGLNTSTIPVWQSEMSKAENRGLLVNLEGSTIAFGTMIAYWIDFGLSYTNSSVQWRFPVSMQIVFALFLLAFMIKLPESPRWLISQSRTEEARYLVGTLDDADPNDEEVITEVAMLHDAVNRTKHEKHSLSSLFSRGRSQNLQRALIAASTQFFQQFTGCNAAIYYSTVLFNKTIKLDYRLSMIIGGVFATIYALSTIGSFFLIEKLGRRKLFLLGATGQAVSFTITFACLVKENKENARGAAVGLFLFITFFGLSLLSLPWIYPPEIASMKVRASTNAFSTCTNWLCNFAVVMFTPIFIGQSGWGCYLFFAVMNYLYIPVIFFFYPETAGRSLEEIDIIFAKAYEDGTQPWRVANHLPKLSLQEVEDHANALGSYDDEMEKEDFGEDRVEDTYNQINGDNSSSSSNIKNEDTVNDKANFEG
Assay: […]-glycerol accumulation in S. cerevisiae
Type: cell-based
Settings: labelled compound; 1 mM, Tris/citrate pH 5.0, 30 °C

OCC(O)CO [glycerol]
14C-glycerol accumulation in S. cerevisiae: higher uptake rate of glycerol by the Stl1 transporter compared with the HGT-1 transporter

Source: paper PMC6431176 (Proceedings of the National Academy of Sciences of the …, 2019)
